From patent publication US9228209B2, “Method for producing triptolide” (priority 2009, dated 2016)

Columns and labels:
[1] = test system: transcription factor NFκB; experiment: Test of NFκB inhibition (TNFα stimulation in HaCaT keratinocyte cells); assay type: cell-based, human
Excerpt: Transcription factor NFκB controls the expression of a large number of genes involved in inflammatory response regulation. Certain proinflammatory stimuli, such as tumor necrosis factor-α (TNFα), lead to NFκB activation, i.e., to its nuclear translocation. Consequently, NFκB will induce the transcription of proinflammatory genes coding for cytokines, chemokines, adhesion molecules, growth factors and inducible enzymes such as cyclooxygenase-2 (COX-2) and nitric oxide synthase (iNOS). NFκB plays a key role in the initiation and amplification of the inflammatory response. Certain chronic inflammatory diseases of the skin, such as atopic dermatitis or psoriasis, are characterized by deregulation of the expression of inflammation mediators expressed by keratinocytes. The anti-inflammatory activity of pure triptolide (TRP) in relation to that of plant cell culture extracts (IBO.18.134) with equivalent amounts of TRP is evaluated.
FIG. 6 represents the inhibition of various extracts on NFκB activation following TNFα stimulation in HaCaT keratinocyte cells. As a positive control, dexamethasone (2 μM), which inhibits NFκB activation by 36%, was used.

RAW264.7 cells = experiment: NO2− production by RAW264.7 cells stimulated with LPS (Griess reagent); assay type: cell-based, murine; settings: identical TRP concentrations; 1 μg/ml LPS, 24 hours
Protocol: To this end, the test selected was NO2^− production by RAW264.7 cells stimulated with lipopolysaccharides (LPS).
Briefly, RAW264.7 cells (murine macrophages) were seeded at 1.4·10^5 cells/cm^2. After 24 hours, the cells were incubated for 1 hour with various concentrations of the products to be tested and then stimulated for 24 hours with 1 μg/ml of LPS. NO2 concentration was estimated in the culture supernatants using the Griess reagent.
The results (FIG. 7) illustrate NO2^− production obtained under the various conditions specified above. The percent inhibition calculated in relation to the LPS control appears in each histogram. Lastly, IC50 was calculated from these values (in bold blue).

SMILES | inhibition of NFκB activation ([1]; from 8 nM to 83 nM, TNFα stimulation, HaCaT keratinocyte cells) | NFκB inhibition, PCC extract compared with pure triptolide ([1]; identical triptolide concentrations of 8 nM, 28 nM and 83 nM) | inhibition of nitrite production induced by LPS (RAW264.7 cells) | inhibition at 2 µM ([1]; Homo sapiens, HaCaT, read-out: inhibition of NFκB activation) [%]
CC(C)[C@]12O[C@H]1[C@@H]1O[C@]13[C@]1(O[C@H]1C[C@H]1C4=C(CC[C@@]13C)C(=O)OC4)[C@@H]2O [triptolide, Triptolide] | inhibits in a dose-dependent manner | equivalent | inhibit nitrite production | 
C[C@@H]1C[C@H]2[C@@H]3CCC4=CC(=O)C=C[C@]4(C)[C@@]3(F)[C@@H](O)C[C@]2(C)[C@@]1(O)C(=O)CO [dexamethasone] |  |  |  | 36
